The values that follow come from patent US4036979A, “Compositions containing 4,5,6,7-tetrahydrobenz[b]thien-4-yl-ureas or derivatives and methods of enhancing growth rate” (American Cyanamid Company, priority 1976, dated 1977).

The nature of this experiment: Mouse Growth Regulant Tests (12-day weight gain over controls, compound in diet). It is filed as in vivo, CFI female mice. Conditions: for change in vivo at 400 ppm / change in vivo at 200 ppm / change in vivo at 50 ppm: Mus musculus, feed or water, 288 h; for change in vivo at 400 ppm: 400 ppm in diet; for change in vivo at 200 ppm: 200 ppm in diet; for change in vivo at 50 ppm: 50 ppm in diet. As to the method: CFI female mice from Carworth Farms are received when they are six weeks old. They are housed ten to a cage in air-conditioned rooms (72° F. to 76° F.) with automatically controlled lights, 14 hours on and 10 hours off. The basal diet used in these studies is Purina Laboratory Chow (see description below), which is supplied ad libitum. Water is also allowed ad libitum.
Thirteen days after arrival, the mice are weighed in groups of ten and assigned at random to the different treatments. Twelve days later the mice are weighed again and the experiment terminated. At least three cages (30 mice) of untreated controls are included in each test. Test data are provided in Tables VI, VII, VIII, and IX below wherein data are reported as percent weight gain over controls. Unless otherwise indicated in these tables, all compounds tested were dl-racemic mixtures. The following is a description of the diet to which the growth promoting compounds were added.

Regarding `O=C(NCCO)NC1CCCc2sccc21` (stereo not drawn) [Table VI: O,H,H,H,H,CH2CH2OH], the change in vivo at 400 ppm (Table VI) stood at 3%.
For the compound `CCCCCCNC(=O)NC1CCCc2sccc21` (stereo not drawn) [Table VI: O,H,H,H,H,n-hexyl, 1-(n-hexyl)-3-(4,5,6,7-tetrahydrobenzo[b]thien-4-yl)urea], under “Table VI”, the change in vivo at 400 ppm was determined as 14.5%.
On the same count and under the same terms, then `O=C(NC1CCCc2sccc21)N1CCCc2ccccc21` (stereo not drawn), with 4%.
On to `CON(C)C(=O)NC1CCC(O)c2sccc21` (stereo not drawn) [Table VIII: O,CH3,OCH3, 1-methyl-1-methoxy-3-(7-hydroxy-4,5,6,7-tetrahydrobenzo[b]-thien-4-yl)urea], for which the change in vivo at 200 ppm (Table VIII) amounted to 60.5%.
Turning to `COc1cccc(NC(=O)NC2CCCc3sccc32)c1` (stereo not drawn), the change in vivo at 400 ppm (Table VI) amounted to 25%.
In the case of `CNC(=O)NC1CCC(=O)c2sccc21` (stereo not drawn) [Table VII: O,H,CH3, 1-methyl-3-(4,5,6,7-tetrahydro-7-oxobenzo[b]thien-4-yl)urea], the change in vivo at 400 ppm (Table VII) was 64.8%.
Take `O=C(NC(=O)C(Cl)(Cl)Cl)NC1CCCc2sccc21` (stereo not drawn): the change in vivo at 200 ppm (Table VI) is 37.4%.
Turning to `O=C(NC(=O)C(Cl)(Cl)Cl)NC1CCC(=O)c2sccc21` (stereo not drawn), where the note is “Table VII”, the change in vivo at 400 ppm was found to be 62.2%.
For the compound `O=C(NCCc1ccccc1)NC1CCCc2sccc21` (stereo not drawn) [Table VI: O,H,H,H,H,CH2CH2C6H5, 1-phenethyl-3-(4,5,6,7-tetrahydrobenzo[b]thien-4-yl)urea], the change in vivo at 400 ppm (Table VI) was determined as 72.3%.
On to `CC(C)NC(=O)NC1CCC(O)c2sccc21` (stereo not drawn) [Table VIII: O,H,iso-C3H7], for which, under “Table VIII”, the change in vivo at 200 ppm was determined as 43.9%.
Regarding `NC(=O)NC1CCCc2sccc21` (single isomer, unassigned; (-)) [Table VI: O,H,H,H,H,H (levorotatory enantiomorph), (-)-4,5,6,7-tetrahydrobenzo[b]-thien-4-ylurea], the change in vivo at 400 ppm (Table VI) was 122%.
For the compound `CN(C)C(=O)NC1CCC(=O)c2sccc21` (stereo not drawn) [Table VII: O,CH3,CH3, 1,1-dimethyl-3-(4,5,6,7-tetrahydro-7-oxobenzo[b]thien-4-yl)urea], the change in vivo at 200 ppm (Table VII) came out at 58.6%.
`COCNC(=O)NC1CCCCc2sccc21` (stereo not drawn) [Table IX: O,H,H,CH2OCH3, 1-(methoxymethyl)-3-(5,6,7,8-tetrahydro-4H-cyclohepta[b]thien-4-yl)urea]: where the note is “Table IX”, the change in vivo at 400 ppm was found to be 10%.
In the case of `CCCCCCCCCCCCNC(=O)NC1CCC(=O)c2sccc21` (stereo not drawn) [Table VII: O,H,n-C12H25, 1-n-dodecyl-3-(4,5,6,7-tetrahydro-7-oxobenzo[b]thien-4-yl)urea], the change in vivo at 400 ppm (Table VII) stood at 4.1%.
For `CNC(=O)NC1(C)CCCc2sccc21` (stereo not drawn) [1-methyl-3-(4-methyl-4,5,6,7-tetrahydrobenzo[b]thien-4-yl)urea], for the setting “Table VI”, the change in vivo at 400 ppm is 39%.
On to `C#CCNC(=O)NC1CCC(O)c2sccc21` (stereo not drawn) [Table VIII: O,H,CH2CCH, 1-(2-propynyl)-3-(7-hydroxy-4,5,6,7-tetrahydrobenzo[b]thien-4-yl)urea], for which, where the note is “Table VIII”, the change in vivo at 50 ppm was 49.2%.
For the compound `COC(=O)NNC(=O)NC1CCCc2sccc21` (stereo not drawn) [Table VI: O,H,H,H,H,NHCO2CH3], the change in vivo at 400 ppm (Table VI) was found to be 18%.
With `NC(=O)NC1CCC(O)c2sccc21` (single isomer, unassigned; (+)) [Table VIII: O,H,H (dextrorotatory diastereomer, 95% isomer B), (+)-4,5,6,7-tetrahydro-7-hydroxybenzo[b]thien-4-ylurea], the change in vivo at 50 ppm (Table VIII) is -11.3%.
Take `NC(=O)NC1CCC(O)c2sccc21` (single isomer, unassigned; (+)) [Table VIII: O,H,H (dextrorotatory diastereomer, 90% isomer A), (+)-4,5,6,7-tetrahydro-7-hydroxybenzo[b]thien-4-ylurea]: the “& Weight Gain Over Controls” value (Table VIII, 25 ppm in diet) was found to be 3.7%.
As for `O=C(NC1CCCc2sccc21)N(O)C1CCCCC1` (stereo not drawn), the change in vivo at 400 ppm (Table VI) is 19%.
As for `COc1ccc(NC(=S)NC2CCCc3sccc32)cc1` (stereo not drawn), where the note is “Table VI”, the change in vivo at 400 ppm is -1.4%.
Take `CCCCCCCCCCCCCCNC(=O)NC1CCC(=O)c2sccc21` (stereo not drawn) [Table VII: O,H,n-C14H29]: the change in vivo at 400 ppm (Table VII) worked out at 9.7%.
With `CCCCNC(=O)NC1CCCc2sccc21` (stereo not drawn) [Table VI: O,H,H,H,H,n-butyl], the change in vivo at 200 ppm (Table VI) worked out at 25%.
On to `COc1ccc(NC(=O)NC2CCCc3sccc32)cc1` (stereo not drawn), for which the change in vivo at 400 ppm (Table VI) was 78%.
In the case of `COCNC(=O)NC1CCC(=O)c2sccc21` (stereo not drawn) [Table VII: O,H,CH2OCH3, 1-(methoxymethyl)-3-(4,5,6,7-tetrahydro-7-oxobenzo[b]thien-4-yl)urea], for the setting “Table VII”, the change in vivo at 400 ppm came to 143%.
As for `O=C(NCc1cccs1)NC1CCCc2sccc21` (stereo not drawn), the change in vivo at 400 ppm (Table VI) is 39%.
`CNC(=S)NC1CCC(O)c2sccc21` (stereo not drawn) [Table VIII: S,H,CH3]: for the setting “Table VIII”, the change in vivo at 400 ppm is 85.1%.
As to `CCNC(=O)NC1CCC(O)c2sccc21` (stereo not drawn) [Table VIII: O,H,C2H5, 1-ethyl-3-(7-hydroxy-4,5,6,7-tetrahydrobenzo[b]thien-4-yl)urea], the change in vivo at 200 ppm (Table VIII) came to 73.4%.
For the compound `CNC(=O)NC1CCCCc2sccc21` (stereo not drawn) [Table IX: O,H,H,CH3, 1-methyl-3-(5,6,7,8-tetrahydro-4H-cyclohepta[b]thien-4-yl)urea], under “Table IX”, the change in vivo at 400 ppm worked out at 41%.
For the compound `O=C(NOc1ccccc1)NC1CCCc2sccc21` (stereo not drawn), the change in vivo at 400 ppm (Table VI) was 90.6%.
`CN(O)C(=O)NC1CCC(=O)c2sccc21` (stereo not drawn) [Table VII: O,CH3,OH]: the change in vivo at 200 ppm (Table VII) is 31.3%.
As to `CCCCOc1ccc(NC(=O)NC2CCCc3sccc32)cc1` (stereo not drawn), the change in vivo at 400 ppm (Table VI) worked out at 9%.
Same read-out and setting: with `CON(C)C(=S)NC1CCCc2sccc21` (stereo not drawn) [Table VI: S,H,H,H,CH3,OCH3] the figure was 66%.
As to `CONC(=O)NC1CCC(O)c2sccc21` (stereo not drawn) [Table VIII: O,H,OCH3, 1-methoxy-3-(7-hydroxy-4,5,6,7-tetrahydrobenzo[b]thien-4-yl)urea], under “Table VIII”, the change in vivo at 400 ppm came to 66.7%.
For `O=C(Nc1ccc(Cl)cc1Cl)NC1CCCc2sccc21` (stereo not drawn), the change in vivo at 400 ppm (Table VI) is 18%.
Same read-out and setting: then `O=C(NC1CCCc2sccc21)N1CCOCC1` (stereo not drawn) [Table VI: O,H,H,H,CH2CH2OCH2CH2, N-(4,5,6,7-tetrahydrobenzo[b]thien-4-yl)-4-morpholinecarboxamide], with 9.9%; and `CNC(=O)NC1CCC(C)(C)c2sccc21` (stereo not drawn) [1-methyl-3-(7,7-dimethyl-4,5,6,7-tetrahydrobenzo-[b]thien-4-yl)urea], with 15%; and `COC(CNC(=O)NC1CCCc2sccc21)OC` (stereo not drawn) [Table VI: O,H,H,H,H,CH2CH(OCH3)2], with 22%.
The same measure, in the same setting: with `C#CCN(CC#C)C(=O)NC1CCCc2sccc21` (stereo not drawn) [Table VI: O,H,H,H,CH2CCH,CH2CCH] the figure was 27%.
On the same count and under the same terms, then `O=C(Nc1ccc([N+](=O)[O-])cc1)NC1CCCc2sccc21` (stereo not drawn), with 9%; and `COCNC(=O)NC1CCCc2sccc21` (stereo not drawn) [Table VI: O,H,H,H,H,CH2OCH3, 1-(methoxymethyl)-3-(4,5,6,7-tetrahydrobenzo[b]thien-4-yl)urea], with 102%.
With `O=C(NCNC(=O)NC1CCCc2sccc21)NC1CCCc2sccc21` (stereo not drawn), for the setting “Table VI”, the change in vivo at 400 ppm stood at 29%.
For `NC(=O)NC1CCCc2sc(Cl)cc21` (stereo not drawn) [Table VI: O,Cl,H,H,H,H, 2-chloro-4,5,6,7-tetrahydrobenzo[b]thien-4-ylurea], where the note is “Table VI”, the change in vivo at 400 ppm is 4.8%.
On the same count and under the same terms, then `O=C(NC1CCCc2sccc21)NC1CCCc2sccc21` (stereo not drawn), with 43%.
With `C#CCNC(=O)NC1CCC(=O)c2sccc21` (stereo not drawn) [Table VII: O,H,CH2CCH, 1-(2-propynyl)-3-(4,5,6,7-tetrahydro-7-oxobenzo[b]thien-4-yl)urea], the change in vivo at 200 ppm (Table VII) is 40.6%.
With `CN(C)NC(=O)NC1CCCc2sccc21` (stereo not drawn) [Table VI: O,H,H,H,H,N(CH3)2], the change in vivo at 400 ppm (Table VI) was determined as 3%.
Still for that read-out and setting: then `COc1ccc(CNC(=O)NC2CCCc3sccc32)cc1` (stereo not drawn), with 16%; and `O=C(NCc1ccccn1)NC1CCCc2sccc21` (stereo not drawn), with 41%; and `O=C(Nc1ccc(Cl)cc1)NC1CCCc2sccc21` (stereo not drawn), with 21%.
For the compound `CCNC(=O)NC1CCC(=O)c2sccc21` (stereo not drawn) [Table VII: O,H,C2H5, 1-ethyl-3-(4,5,6,7-tetrahydro-7-oxobenzo[b]thien-4-yl)urea], the change in vivo at 400 ppm (Table VII) worked out at 79.3%.
As to `O=C(NC1CCCc2ccccc21)NC1CCCc2sccc21` (stereo not drawn), for the setting “Table VI”, the change in vivo at 400 ppm is 4%.
As for `CNC(=S)NC1CCC(=O)c2sccc21` (stereo not drawn) [Table VII: S,H,CH3], under “Table VII”, the change in vivo at 400 ppm stood at 62.5%.
Regarding `O=C(NC1CCCc2sccc21)N1CCc2ccccc2C1` (stereo not drawn), under “Table VI”, the change in vivo at 400 ppm turned out to be 7%.
The same measure, in the same setting: with `CCNC(=S)NC1CCCc2sccc21` (stereo not drawn) [Table VI: S,H,H,H,H,C2H5, 1-ethyl-3-(4,5,6,7-tetrahydrobenzo[b]thien-4-yl)thiourea] the figure was 54.6%.
On the same count and under the same terms, then `CON(C)C(=O)NC1CCCc2sccc21` (stereo not drawn) [Table VI: O,H,H,H,CH3,OCH3, 1-methoxy-1-methyl-3-(4,5,6,7-tetrahydrobenzo[b]thien-4-yl)urea], with 107%.
For the compound `CONC(=O)NC1CCC(=O)c2sccc21` (stereo not drawn) [Table VII: O,H,OCH3], where the note is “Table VII”, the change in vivo at 200 ppm came out at 71%.
For the compound `NC(=O)NC1CCCc2sc([N+](=O)[O-])cc21` (stereo not drawn) [Table VI: O,NO2,H,H,H,H, 2-nitro-4,5,6,7-tetrahydrobenzo[b]thien-4-ylurea], the change in vivo at 400 ppm (Table VI) was 17%.
